Experimental data: BindingDB's records for doi:10.1021/jm800245z (Merck Research Laboratories, 2008)

Molecular target: Gag-Pol polyprotein (Human immunodeficiency virus type 1 group M subtype B (isolate HXB2), UniProt P04585)
Assay: Microtiter Plate Assay for Strand Transfer
Conditions: pH 7.8; 37 °C
Procedure: The microtiter plate assay for stand transfer was performed with an immobilized donor substrate and a target substrate biotinylated at the 3-prime end of each DNA strand. Integrase was first assembled with immobilized LTR oligonucleotides for 30 min. Inhibitors were added after assembly and washings. For the strand transfer reaction, it was initiated with the addition of the biotinylated target substrate. Strand transfer reaction mixtures were incubated for additional 30 min, and the strand transfer products were detected by using alkaline phosphatase-conjugated avidin (Boehringer Mannheim, Indianapolis, Ind.).

## CNC(=O)c1nc(C(C)(C)NC(=O)C(=O)N(C)C)n(C)c(=O)c1O [N-{2-[5-hydroxy-1-methyl-4-(methylcarbamoyl)-6-oxo-1,6-dihydropyrimidin-2-yl]propan-2-yl}-N',N'-dimethylethanediamide]
  IC50: > 5 µM
